What was measured:
[1] = tested on: Mycobacterium tuberculosis; assay: Antibacterial activity against Mycobacterium tuberculosis H37Rv ATCC 25618 after 8 to 9 days by BacT/Alert MP bottle assay; assay type: functional
[2] = Inhibition of Mycobacterium tuberculosis shikimate dehydrogenase using shikimic acid as substrate in presence of NADP+ by spectrophotometric analysis
[3] = Cytotoxicity against African green monkey Vero cells assessed as reduction in cell viability by Alamar blue assay; assay type: toxicity, cell-based; conditions: African green monkey (Chlorocebus sabaeus)
[4] = Cytotoxicity against human HepG2 cells assessed as reduction in cell viability by Alamar blue assay; assay type: toxicity, cell-based
[5] = Selectivity index, ratio of IC50 for African green monkey Vero cells to MIC for Mycobacterium tuberculosis H37Rv ATCC 25618; assay type: toxicity, cell-based; conditions: read-out: Selectivity Index
[6] = Selectivity index, ratio of IC50 for human HepG2 cells to MIC for Mycobacterium tuberculosis H37Rv ATCC 25618; assay type: toxicity, cell-based; conditions: read-out: Selectivity Index

COc1ccc(-c2nnc3n2N=C(c2ccccc2)CS3)cc1
MIC [1]: > 8 µg/mL

O=[N+]([O-])c1ccc(C2=Nn3c(nnc3-c3ccc(Cl)cc3)SC2)cc1
MIC [1]: 8 µg/mL

Fc1ccc(C2=Nn3c(nnc3-c3ccccc3)SC2)cc1
MIC [1]: > 8 µg/mL

Clc1ccc(-c2nnc3sc(COc4ccc(Br)cc4)nn23)cc1
MIC [1]: 0.5 µg/mL

Clc1ccc(-c2nnc3n2N=C(c2ccccc2)CS3)cc1
MIC [1]: > 8 µg/mL

Fc1ccc(C2=Nn3c(nnc3-c3ccncc3)SC2)cc1
MIC [1]: > 8 µg/mL

c1ccc(C2=Nn3c(nnc3-c3ccncc3)SC2)cc1
MIC [1]: 8 µg/mL

COc1ccc(C2=Nn3c(nnc3-c3ccc(Br)cc3)SC2)cc1
MIC [1]: 8 µg/mL

O=[N+]([O-])c1ccc(C2=Nn3c(Cc4ccc5ccccc5c4)nnc3SC2)cc1
MIC [1]: 9.95 µM
IC50 [2]: 11.68 µg/mL
IC50 [3]: 69.7 µM
IC50 [4]: 72.6 µM
selectivity ratio [5]: 7.01
selectivity ratio [6]: 7.29

Fc1ccc(C2=Nn3c(nnc3-c3ccncc3F)SC2)cc1
MIC [1]: > 8 µg/mL

COc1ccc(C2=Nn3c(Cc4ccc5ccccc5c4)nnc3SC2)cc1
MIC [1]: > 8 µg/mL

Fc1cnccc1-c1nnc2n1N=C(c1ccccc1)CS2
MIC [1]: > 8 µg/mL

c1ccc(C2=Nn3c(Cc4ccc5ccccc5c4)nnc3SC2)cc1
MIC [1]: > 8 µg/mL

COc1ccc(C2=Nn3c(nnc3-c3ccncc3)SC2)cc1
IC50 [2]: 20.99 µg/mL

O=[N+]([O-])c1ccc(C2=Nn3c(nnc3-c3ccncc3F)SC2)cc1
MIC [1]: 2.8 µM
IC50 [2]: 73.57 µg/mL
IC50 [3]: 355 µM
IC50 [4]: 166 µM
selectivity ratio [5]: 127
selectivity ratio [6]: 59.2

COc1ccc(-c2nnc3n2N=C(c2ccc(F)cc2)CS3)cc1
MIC [1]: > 8 µg/mL

NNC(=O)c1ccncc1 [ISONIAZID]
MIC [1]: 0.12 µg/mL

COc1ccc(C2=Nn3c(nnc3-c3ccc(Cl)cc3)SC2)cc1
MIC [1]: > 8 µg/mL

Fc1ccc(C2=Nn3c(nnc3-c3ccc(Br)cc3)SC2)cc1
MIC [1]: > 8 µg/mL

c1ccc(C2=Nn3c(nnc3-c3ccccc3)SC2)cc1
IC50 [2]: 28.38 µg/mL

COc1ccc(C2=Nn3c(nnc3-c3ccccc3)SC2)cc1
MIC [1]: > 8 µg/mL

Fc1ccc(C2=Nn3c(Cc4ccc5ccccc5c4)nnc3SC2)cc1
MIC [1]: > 8 µg/mL

COc1ccc(C2=Nn3c(nnc3-c3ccc(OC)cc3)SC2)cc1
MIC [1]: > 8 µg/mL

Brc1ccc(-c2nnc3n2N=C(c2ccccc2)CS3)cc1
MIC [1]: 0.67 µM
IC50 [2]: 252.5 µg/mL
IC50 [3]: 58.5 µM
IC50 [4]: 235 µM
selectivity ratio [5]: 87.3
selectivity ratio [6]: 350

O=[N+]([O-])c1ccc(C2=Nn3c(nnc3-c3ccccc3)SC2)cc1
MIC [1]: > 8 µg/mL

CO[C@H]1/C=C/O[C@@]2(C)Oc3c(C)c(O)c4c(O)c(c(/C=N/N5CCN(C)CC5)c(O)c4c3C2=O)NC(=O)/C(C)=C\C=C\[C@H](C)[C@H](O)[C@@H](C)[C@@H](O)[C@@H](C)[C@H](OC(C)=O)[C@@H]1C [RIFAMPIN]
MIC [1]: 0.25 µg/mL

COc1ccc(C2=Nn3c(nnc3-c3ccncc3F)SC2)cc1
MIC [1]: 8 µg/mL

COc1ccc(-c2nnc3n2N=C(c2ccc([N+](=O)[O-])cc2)CS3)cc1
MIC [1]: > 8 µg/mL

Fc1ccc(C2=Nn3c(nnc3-c3ccc(Cl)cc3)SC2)cc1
MIC [1]: > 8 µg/mL

Fc1ccc(-c2nnc3sc(COc4ccccc4)nn23)cc1
MIC [1]: 24.5 µM
IC50 [2]: 23 µg/mL
IC50 [3]: 71 µM
IC50 [4]: 46.6 µM
selectivity ratio [5]: 2.9
selectivity ratio [6]: 1.9

Brc1ccc(OCc2nn3c(-c4ccc(Br)cc4)nnc3s2)cc1
MIC [1]: 0.5 µg/mL

O=[N+]([O-])c1ccc(C2=Nn3c(nnc3-c3ccc(Br)cc3)SC2)cc1
MIC [1]: 0.6 µM
IC50 [2]: 86.39 µg/mL
IC50 [3]: 13.9 µM
IC50 [4]: 10.4 µM
selectivity ratio [5]: 23.2
selectivity ratio [6]: 17.3

From ChEMBL document CHEMBL3875182 (Bioorg Med Chem, 2017)
